# PubChem BioAssay AID330 (DTP/NCI, 2004)
# Values joined by “and” are separate entries in the source; they are usually repeats but may differ in a detail not shown here. Equal values may be shown once. Toxic doses and inconclusive results are not listed.
# System: P388 leukemia ip, CD2F1 mice, survival T/C
# Assay: NCI In Vivo Anticancer Drug Screen. Data for tumor model P388 Leukemia (intraperitoneal) in CD2F1 (CDF1) mice
# Conditions: endpoint: median survival time, higher = longer survival
# How it was run: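 Mice carrying the transplanted tumor received test compound or vehicle. Survival was recorded in each group, and the value is the treated-group measurement divided by that of the vehicle-treated control group.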
# [1] = dose: 50.0 mg/kg/injection, schedule: Q01DX009 (ip), vehicle: saline
# [2] = dose: 100.0 mg/kg/injection, schedule: Q01DX009 (ip), vehicle: saline
# [3] = dose: 200.0 mg/kg/injection, schedule: Q01DX009 (ip), vehicle: saline
# [4] = dose: 100.0 mg/kg/injection, schedule: Q04DX003 (ip), vehicle: Klucel (hydroxypropylcellulose) (HPC)
# [5] = dose: 200.0 mg/kg/injection, schedule: Q04DX003 (ip), vehicle: Klucel (hydroxypropylcellulose) (HPC)
# [6] = dose: 400.0 mg/kg/injection, schedule: Q04DX003 (ip), vehicle: Klucel (hydroxypropylcellulose) (HPC)
# [7] = dose: 12.5 mg/kg/injection, schedule: Q01DX009 (ip), vehicle: saline
# [8] = dose: 25.0 mg/kg/injection, schedule: Q01DX009 (ip), vehicle: saline
# [9] = dose: 50.0 mg/kg/injection, schedule: Q01DX009 (ip), vehicle: saline with Tween-80
# [10] = dose: 50.0 mg/kg/injection, schedule: Q01DX005 (ip), vehicle: saline with Tween-80
# [11] = dose: 100.0 mg/kg/injection, schedule: Q01DX005 (ip), vehicle: saline with Tween-80
# [12] = dose: 200.0 mg/kg/injection, schedule: Q01DX005 (ip), vehicle: saline with Tween-80
# [13] = dose: 100.0 mg/kg/injection, schedule: Q04DX003 (ip), vehicle: saline with Tween-80
# [14] = dose: 50.0 mg/kg/injection, schedule: Q01DX009 (ip), vehicle: Klucel (hydroxypropylcellulose) (HPC)
# [15] = dose: 100.0 mg/kg/injection, schedule: Q01DX009 (ip), vehicle: Klucel (hydroxypropylcellulose) (HPC)
# [16] = dose: 200.0 mg/kg/injection, schedule: Q01DX009 (ip), vehicle: Klucel (hydroxypropylcellulose) (HPC)
# [17] = dose: 400.0 mg/kg/injection, schedule: Q01DX009 (ip), vehicle: Klucel (hydroxypropylcellulose) (HPC)
# [18] = dose: 25.0 mg/kg/injection, schedule: Q01DX005 (ip), vehicle: Klucel (hydroxypropylcellulose) (HPC)
# [19] = dose: 50.0 mg/kg/injection, schedule: Q01DX005 (ip), vehicle: Klucel (hydroxypropylcellulose) (HPC)
# [20] = dose: 100.0 mg/kg/injection, schedule: Q01DX005 (ip), vehicle: Klucel (hydroxypropylcellulose) (HPC)
# [21] = dose: 200.0 mg/kg/injection, schedule: Q01DX005 (ip), vehicle: Klucel (hydroxypropylcellulose) (HPC)
# [22] = dose: 60.0 mg/kg/injection, schedule: Q01DX005 (ip), vehicle: saline with Tween-80
# [23] = dose: 120.0 mg/kg/injection, schedule: Q01DX005 (ip), vehicle: saline with Tween-80
# [24] = dose: 240.0 mg/kg/injection, schedule: Q01DX005 (ip), vehicle: saline with Tween-80
# [25] = dose: 100.0 mg/kg/injection, schedule: Q01DX009 (ip), vehicle: saline with Tween-80
# [26] = dose: 200.0 mg/kg/injection, schedule: Q01DX009 (ip), vehicle: saline with Tween-80
smiles,measurement,setting,value
COc1cccc(C(=O)OCCC(C)C)c1O,T/C,[1],110 % of control
same,T/C,[2],110 % of control and 92 % of control
same,T/C,[3],104 % of control and 117 % of control
CCCCCCC1NC(CCCCCC)N2C(CCCCCC)N12 (stereo not drawn),T/C,[4],101 % of control
same,T/C,[5],97 % of control
same,T/C,[6],93 % of control
OC1(c2nccc3ccccc23)CCN(CCc2ccccc2)CC1,T/C,[7],102 % of control
same,T/C,[8],97 % of control
same,T/C,[9],87 % of control
same,T/C,[1],108 % of control
CCOC(=O)Cc1csc(=S)n1CC,T/C,[10],98 % of control
same,T/C,[11],98 % of control
same,T/C,[12],98 % of control
O=C(c1ccccc1)C(O)O,T/C,"dose: 25.0 mg/kg/injection, schedule: Q04DX003 (ip), vehicle: saline with Tween-80",103 % of control
same,T/C,"dose: 50.0 mg/kg/injection, schedule: Q04DX003 (ip), vehicle: saline with Tween-80",106 % of control
same,T/C,[13],106 % of control and 109 % of control
S=C1OCCO1,T/C,[14],106 % of control
same,T/C,[15],102 % of control
same,T/C,[16],100 % of control
same,T/C,[17],105 % of control
O=C1c2ccccc2C(=O)N1SN1C(=O)c2ccccc2C1=O,T/C,[14],110 % of control
same,T/C,[15],109 % of control
same,T/C,[16],102 % of control
same,T/C,[17],109 % of control
COC=C=CC(C)(C)OC,T/C,[18],102 % of control and 110 % of control
same,T/C,[19],103 % of control and 91 % of control and 95 % of control
same,T/C,[20],103 % of control and 112 % of control and 121 % of control
same,T/C,[21],100 % of control and 103 % of control and 114 % of control
C=C1C(=O)OC(C)(C)C1c1ccccc1 (stereo not drawn),T/C,[14],96 % of control
same,T/C,[15],90 % of control
O=c1c(Cl)c(Cl)c(=O)c2sc3cc(Cl)ccc3[nH]c1=2,T/C,[1],98 % of control
same,T/C,[2],102 % of control
same,T/C,[3],101 % of control
O=C(O)c1ccc(Cc2ccc(C(=O)O)cc2)cc1 (tested in a mixture with another compound),T/C,[1],95 % of control
same,T/C,[2],99 % of control
same,T/C,[3],104 % of control
CCCCCCCCCCCCCCCC[N+]1([O-])CCCCC1,T/C,[7],101 % of control
same,T/C,[8],108 % of control
same,T/C,[1],100 % of control and 107 % of control
C=CC(=O)NC(O)C(Cl)(Cl)Cl (stereo not drawn),T/C,[19],98 % of control
same,T/C,[20],98 % of control
same,T/C,[21],102 % of control
COc1cc2cc[n+]3c4ccc([N+](=O)[O-])cc4ccc3c2cc1OC,T/C,[12],89 % of control
Cc1n[nH]c(=S)n1N,T/C,[14],94 % of control
same,T/C,[15],93 % of control
same,T/C,[16],95 % of control
same,T/C,[17],88 % of control
[CH3][Sn]([CH3])([Cl])[O][Sn]([CH3])([CH3])[Cl],T/C,"dose: 1.56 mg/kg/injection, schedule: Q01DX009 (ip), vehicle: saline",115 % of control
same,T/C,"dose: 3.12 mg/kg/injection, schedule: Q01DX009 (ip), vehicle: saline",109 % of control and 118 % of control
same,T/C,"dose: 6.25 mg/kg/injection, schedule: Q01DX009 (ip), vehicle: saline",118 % of control and 123 % of control
same,T/C,"dose: 12.5 mg/kg/injection, schedule: Q04DX003 (ip), vehicle: saline",116 % of control
same,T/C,"dose: 25.0 mg/kg/injection, schedule: Q04DX003 (ip), vehicle: saline",124 % of control
same,T/C,"dose: 50.0 mg/kg/injection, schedule: Q04DX003 (ip), vehicle: saline",109 % of control
CCc1c(C)nc2cc(-c3cc(C)n4c(=O)c(CC)c(C)nc4c3)cc(C)n2c1=O,T/C,"dose: 60.0 mg/kg/injection, schedule: Q01DX005 (ip), vehicle: Klucel (hydroxypropylcellulose) (HPC)",90 % of control
same,T/C,"dose: 120.0 mg/kg/injection, schedule: Q01DX005 (ip), vehicle: Klucel (hydroxypropylcellulose) (HPC)",96 % of control
same,T/C,"dose: 240.0 mg/kg/injection, schedule: Q01DX005 (ip), vehicle: Klucel (hydroxypropylcellulose) (HPC)",100 % of control
CN(C)c1ccc(Nc2c3ccccc3nc3ccccc23)cc1,T/C,"dose: 12.5 mg/kg/injection, schedule: Q04DX002 (ip), vehicle: distilled water + Tween-80",113 % of control
same,T/C,"dose: 13.0 mg/kg/injection, schedule: Q04DX003 (ip), vehicle: saline with Tween-80",100 % of control and 103 % of control
same,T/C,"dose: 21.6 mg/kg/injection, schedule: Q04DX003 (ip), vehicle: saline with Tween-80",107 % of control and 111 % of control
same,T/C,"dose: 25.0 mg/kg/injection, schedule: Q04DX002 (ip), vehicle: distilled water + Tween-80",150 % of control and 156 % of control
same,T/C,"dose: 25.9 mg/kg/injection, schedule: Q04DX003 (ip), vehicle: saline",109 % of control
same,T/C,"dose: 36.0 mg/kg/injection, schedule: Q04DX003 (ip), vehicle: saline with Tween-80",110 % of control and 111 % of control
same,T/C,"dose: 50.0 mg/kg/injection, schedule: Q04DX002 (ip), vehicle: distilled water + Tween-80",185 % of control and 196 % of control
same,T/C,[13],157 % of control
same,T/C,"dose: 120.0 mg/kg/injection, schedule: Q04DX003 (ip), vehicle: saline",179 % of control
Cc1nnc2c3[nH]c4ccccc4c3c(Cl)nn12,T/C,[19],99 % of control
same,T/C,[20],92 % of control
same,T/C,[21],98 % of control
CC(=O)OC1COC(Nc2[nH]c(=O)n(C)c(=O)c2C(=O)CCl)C(OC(C)=O)C1OC(C)=O (stereo not drawn),T/C,[10],104 % of control
same,T/C,[11],96 % of control
same,T/C,[12],93 % of control
Cn1nnc(-c2ccc([N+](=O)[O-])cc2)n1,T/C,[4],105 % of control
same,T/C,[5],103 % of control
same,T/C,[6],103 % of control
O=C(NCCc1ccc(Cl)cc1)c1ccc(Cl)cc1,T/C,[22],96 % of control
same,T/C,[23],97 % of control
same,T/C,[24],91 % of control
O=Nc1cc(S(=O)(=O)O)c2cccnc2c1O,T/C,"dose: 100.0 mg/kg/injection, schedule: Q04DX002 (ip), vehicle: saline",100 % of control
same,T/C,"dose: 200.0 mg/kg/injection, schedule: Q04DX002 (ip), vehicle: saline",100 % of control
same,T/C,"dose: 400.0 mg/kg/injection, schedule: Q04DX002 (ip), vehicle: saline",90 % of control
COCCOC(C)C(/C=N/N=C(N)N)=N/N=C(N)N (stereo not drawn),T/C,"dose: 12.5 mg/kg/injection, schedule: Q01DX005 (ip), vehicle: saline",101 % of control
same,T/C,"dose: 25.0 mg/kg/injection, schedule: Q01DX005 (ip), vehicle: saline",103 % of control
same,T/C,"dose: 50.0 mg/kg/injection, schedule: Q01DX005 (ip), vehicle: saline",99 % of control and 101 % of control
COc1ccc(/C=C\C(C)=N\NC(=S)Nc2ccc(Cl)cc2)cc1,T/C,"dose: 100.0 mg/kg/injection, schedule: Q01DX001 (ip), vehicle: Klucel (hydroxypropylcellulose) (HPC)",103 % of control
same,T/C,"dose: 200.0 mg/kg/injection, schedule: Q01DX001 (ip), vehicle: Klucel (hydroxypropylcellulose) (HPC)",102 % of control
same,T/C,"dose: 400.0 mg/kg/injection, schedule: Q01DX001 (ip), vehicle: Klucel (hydroxypropylcellulose) (HPC)",103 % of control
CCOC(=O)c1ccc2c(c1)nc(-c1ccccn1)n2CCc1ccccn1,T/C,[18],100 % of control and 102 % of control
same,T/C,[19],98 % of control
same,T/C,[20],100 % of control and 107 % of control
same,T/C,[21],109 % of control and 110 % of control
NC(=S)NNCCC(=O)Nc1ccccc1C(F)(F)F,T/C,[22],94 % of control
same,T/C,[23],94 % of control
same,T/C,[24],96 % of control
C=CCOc1nc(OCC=C)nc(OCC=C)n1,T/C,[25],97 % of control
same,T/C,[26],93 % of control
CCOC(=O)C1=NNC(C#N)C1 (stereo not drawn),T/C,[10],101 % of control
same,T/C,[11],97 % of control
same,T/C,[12],99 % of control
CCOC(=O)NN,T/C,[7],111 % of control
same,T/C,[8],92 % of control
Oc1ccc2ccccc2c1/C=N\Sc1ccc(Cl)cc1,T/C,[9],90 % of control
same,T/C,[25],91 % of control
same,T/C,[26],96 % of control
